This passage reports EC50 results from patent publication US12351580B2, “NLRP3 modulators” (Innate Tumor Immunity, Inc., priority 2017, dated 2025).

The target in this test is T1, hNLRP3 (Homo sapiens, UniProt Q96P20).
T1 construct: THP-1 cells were purchased from the American Type Culture Collection; host or cells: THP-1 cells, PMA-differentiated
The test is described as follows: Measurement of IL-1β production in PMA-differentiated THP-1 cells (hNLRP3 agonist; ELISA, alternative and hTRF procedures). In kind it is cell-based. As for the experimental part:
Measurement of IL-1β production in PMA-differentiated THP-1 cells THP-1 cells were purchased from the American Type Culture Collection and sub-cultured according to instructions from the supplier. Prior to experiments, cells were cultured in RPMI 1640 containing 10% heat inactivated FBS, penicillin (100 units/ml) and streptomycin (100 μg/ml), and maintained in log phase prior to experimental setup. Prior to the experiment THP-1 were treated with PMA (Phorbol 12-myristate 13-acetate) ([…]) for 24 hours. The day of the experiment the media was removed and attaching cells were treated with trypsin for 2 minutes, cells were then collected, washed with PBS (phosphate buffer saline), spin down, resuspended in 2% heat inactivated FBS with RPMI at a concentration of 1×10^6 cells/ml, and 100 μl was plated in a 96 well plate. Compounds were dissolved in dimethyl sulfoxide (DMSO) and added to the culture medium to achieve desired concentration (e.g. 100, 30, 10, 3, 1, 0.3 or 0.1 μM). Cells were incubated with compounds for 4 hours. Cell free supernatant was collected and the production of […] was evaluated by ELISA. A vehicle only control was run concurrently with each experiment. Final DMSO concentration was 1%.
Measurement of IL-1β Production in PMA-Differentiated THP-1 Cells (Alternative Procedure)
THP-1 cells were purchased from the American Type Culture Collection and sub-cultured according to instructions from the supplier. Prior to experiments, cells were cultured in RPMI 1640 containing 10% heat inactivated FBS, penicillin (100 units/ml), streptomycin (100 μg/ml), HEPES (10 mM) and sodium pyruvate (1 mM) and maintained in log phase prior to experimental setup. Prior to the experiment, THP-1 cells were treated with PMA (Phorbol 12-myristate 13-acetate) (20 μg/ml) overnight. The day of the experiment, the media was removed and attached cells were treated with trypsin for 2 minutes, cells were then collected, washed with PBS (phosphate buffer saline), pelleted by centrifugation and resuspended in 2% heat inactivated FBS with RPMI at a concentration of 50,000 cells/well in a 384 well plate. Cell free supernatant was collected and the production of IL-1β was evaluated by ELISA. Compounds were dissolved in dimethyl sulfoxide (DMSO) and added to the culture medium to achieve desired concentration (e.g. 100, 30, 10, 3, 1, 0.3 or 0.1 μM). Cells were incubated with compounds for 2 hours. A vehicle only control was run concurrently with each experiment. Final DMSO concentration was 1%.
Measurement of IL-1β Production—hTRF Protocol (Second Alternative Procedure)
Serial dilutions of compounds in DMSO were added to low volume 384 well plates at 100 nl/well using an ECHO 550 acoustic dispenser (Labcyte) to achieve final starting concentration of 10 μM in assay.
THP-1 cells in RPMI (Gibco, 11875) media with 10% FBS at a density of 1×10^6 cell/ml in a T175 flask were treated with a final concentration of phorbol 12-myristate 13-acetate (PMA) (Sigma, P1585) of 50 ng/ml overnight at 37° C. at 5% CO2 for differentiation. Cells were harvested the next day after rinsing well with dPBS using 0.5% trypsin. A cell solution was prepared of 1×10^6 cells/ml for 50,000 cells in 50 μl/well in RPMI media with 2% FBS. Cells were plated using a multichannel pipette onto the compound dilutions in Greiner, 384 well, black clear bottom tissue culture treated plates (781090). The plates were incubated in 37° C. incubator at 5% CO2 for 2 hours.
After the 2 hour incubation, the cell plates were spun in the centrifuge for 5 minutes at 1200 rpm. Using the Felix (CyBio), 8 μl of the supernatant was transferred to 384 well, low volume, white proxy plates. (Perkin Elmer, 6008230). A human IL1beta hTRF kit was used to analyze the supernatant (CISBIO, 62HIL1BPEG). The kit instructions were followed for preparing the IL1Beta standard curve and then the antibodies from the kit were diluted 1:40 rather than 1:20 as kit instructed.
In general terms: An ELISA detects its analyte on a solid surface through an enzyme-linked reagent.

Each structure is given as a SMILES string.

T1 sequence (Q96P20 whole entry): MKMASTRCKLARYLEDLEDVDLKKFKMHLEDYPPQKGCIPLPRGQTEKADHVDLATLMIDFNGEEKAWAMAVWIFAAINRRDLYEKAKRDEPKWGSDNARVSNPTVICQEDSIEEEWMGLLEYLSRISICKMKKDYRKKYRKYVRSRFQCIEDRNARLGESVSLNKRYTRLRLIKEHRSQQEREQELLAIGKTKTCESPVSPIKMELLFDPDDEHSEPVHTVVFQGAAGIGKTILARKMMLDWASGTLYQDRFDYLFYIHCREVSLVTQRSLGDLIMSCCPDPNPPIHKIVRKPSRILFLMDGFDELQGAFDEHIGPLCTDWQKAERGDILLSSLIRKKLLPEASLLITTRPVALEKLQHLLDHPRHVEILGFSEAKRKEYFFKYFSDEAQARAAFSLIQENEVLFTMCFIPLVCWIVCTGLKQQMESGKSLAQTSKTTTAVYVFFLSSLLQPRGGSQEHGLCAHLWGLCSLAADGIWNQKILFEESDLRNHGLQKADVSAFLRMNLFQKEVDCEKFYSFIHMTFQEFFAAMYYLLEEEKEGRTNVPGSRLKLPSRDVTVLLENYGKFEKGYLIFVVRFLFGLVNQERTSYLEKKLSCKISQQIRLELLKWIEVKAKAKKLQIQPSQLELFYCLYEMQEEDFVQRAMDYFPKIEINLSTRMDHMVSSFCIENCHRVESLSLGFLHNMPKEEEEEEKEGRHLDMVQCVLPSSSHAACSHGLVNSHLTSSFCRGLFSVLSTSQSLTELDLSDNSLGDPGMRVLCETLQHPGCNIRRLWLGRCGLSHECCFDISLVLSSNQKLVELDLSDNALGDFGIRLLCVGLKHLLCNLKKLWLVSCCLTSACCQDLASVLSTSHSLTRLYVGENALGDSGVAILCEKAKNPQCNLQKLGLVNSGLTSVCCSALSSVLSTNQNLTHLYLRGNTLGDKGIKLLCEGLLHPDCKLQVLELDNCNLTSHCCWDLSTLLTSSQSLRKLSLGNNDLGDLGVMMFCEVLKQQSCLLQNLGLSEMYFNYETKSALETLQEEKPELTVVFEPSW

Regarding `CCN(Cc1nc2c(N)nc3ccccc3c2n1CCC(=O)N1CCN(C(=O)OC(C)(C)C)CC1)C(C)=O` [Compound 212], a half-maximal effect (EC50) was put at 85 µM.
Take `CCN(Cc1nc2c(N)nc3cc(Br)ccc3c2n1CCCC(=O)N(C)C)C(C)=O` [Compound 213]: the response was half-maximal at 17.6 µM (EC50).
With `CCN(Cc1nc2c(N)nc3cc(Br)ccc3c2n1CCCC(=O)N1CCOCC1)C(C)=O` [Compound 214], a half-maximal effect (EC50) was put at 51.5 µM.
On to `CN(C)C(=O)CCCn1c(CN2CCCC2=O)nc2c(N)nc3cc(Br)ccc3c21` [Compound 215], for which the EC50 – broadly, the midpoint of the concentration-response curve – worked out at 18.2 µM.
Then `COC(=O)CCCn1c(CN2CCCC2=O)nc2c(N)nc3cc(Cl)ccc3c21` [Compound 216], with 6.6 µM.
In turn, `CCN(Cc1nc2c(N)nc3cc(Cl)ccc3c2n1CCCC(=O)NC)C(C)=O` [Compound 217] came in with a 50% effective concentration (EC50) of 96 µM.
The compound `CCN(Cc1nc2c(N)nc3cc(Br)ccc3c2n1CCCC(=O)OC)C(C)=O` [Compound 218] returned an EC50 of 1.2 µM.
Then `CCN(Cc1nc2c(N)nc3cc(Cl)ccc3c2n1CCCC(=O)OC)C(C)=O` [Compound 219], with 2 µM; and `CCN(Cc1nc2c(N)nc3cc(Cl)ccc3c2n1CCCC(=O)N1CCOCC1)C(C)=O` [Compound 220], with 51 µM.
`CCN(Cc1nc2c(N)nc3cc(Cl)ccc3c2n1CCCC(=O)N1CCN(C)CC1)C(C)=O` [Compound 221] yielded an EC50 of 85 µM.
In turn, `CCN(Cc1nc2c(N)nc3cc(Cl)ccc3c2n1CCCC(=O)N1CCCC1)C(C)=O` [Compound 222] returned an EC50 of 42 µM.
`CCN(Cc1nc2c(N)nc3ccccc3c2n1CCC(=O)N1CCS(=O)(=O)CC1)C(=O)OC(C)(C)C` [Compound 223] returned a concentration for a half-maximal effect (EC50) of 77 µM.
Then `CCNCc1nc2c(N)nc3cc(Br)ccc3c2[nH]1` [Compound 225], with 10.9 µM; and `CCN(Cc1nc2c(N)nc3cc(C(F)(F)F)ccc3c2n1CCCC(=O)NC)C(=O)OC(C)(C)C` [Compound 226], with 85 µM; and `CCNCc1nc2c(N)nc3cc(C(F)(F)F)ccc3c2n1CCCC(=O)OC` [Compound 227], with 22.7 µM.
The result for `CCN(Cc1nc2c(N)nc3cc(C(F)(F)F)ccc3c2n1CCCC(=O)N1CCOCC1)C(=O)OC(C)(C)C` [Compound 228] reads 93 µM.
The result for `CCN(Cc1nc2c(N)nc3cc(C(F)(F)F)ccc3c2n1CCCC(=O)OC)C(C)=O` [Compound 229] reads 12.3 µM; that for `COc1ccc(-c2ccc3c(c2)nc(N)c2nc(CN4CCCC4=O)[nH]c23)cc1` [Compound 230], 4.5 µM; that for `CC(=O)NCc1nc2c(N)nc3ccccc3c2[nH]1` [Compound 233], 120 µM.
The compound `Nc1nc2ccccc2c2[nH]c(CN3CCCC3=O)nc12` [Compound 278] yielded an EC50 of 10.8 µM.
Then `Nc1nc2cc(-c3cccnc3)ccc2c2[nH]c(CN3CCCC3=O)nc12` [Compound 279, 1-[(4-amino-7-pyridin-3-yl-1H-imidazo[4,5-c]quinolin-2-yl)methyl]pyrrolidin-2-one], with 7.5 µM.
Then `Nc1nc2cc(-c3ccccc3)ccc2c2[nH]c(CN3CCCC3=O)nc12` [Compound 280, 1-[(4-amino-7-phenyl-1H-imidazo[4,5-c]quinolin-2-yl)methyl]pyrrolidin-2-one], with 0.22 µM; and `Nc1nc2cc(-c3ccccc3Cl)ccc2c2[nH]c(CN3CCCC3=O)nc12` [Compound 281, 1-[[4-amino-7-(2-chlorophenyl)-1H-imidazo[4,5-c]quinolin-2-yl]methyl]pyrrolidin-2-one], with 1.4 µM; and `Cc1ccccc1-c1ccc2c(c1)nc(N)c1nc(CN3CCCC3=O)[nH]c12` [Compound 282, 1-[[4-amino-7-(2-methylphenyl)-1H-imidazo[4,5-c]quinolin-2-yl]methyl]pyrrolidin-2-one], with 4.8 µM.
In the case of `COc1ccccc1-c1ccc2c(c1)nc(N)c1nc(CN3CCCC3=O)[nH]c12` [Compound 283, 1-[[4-amino-7-(2-methoxyphenyl)-1H-imidazo[4,5-c]quinolin-2-yl]methyl]pyrrolidin-2-one], the EC50 was 6.5 µM.
